US20250243196A1, “CITRON KINASE INHIBITORS” (The Cleveland Clinic Foundation, priority 2021, published 2025)

Assays:
Experiment in all cases: KinaseProfiler panel
Format in all cases: biochemical
Conditions in all cases: activity remaining
NEK6(h) = NEK6(h) (Homo sapiens (Human), UniProt Q9HC98); design: dose or concentration left out as unconfirmed
MEKK3(h) = MEKK3(h) (Homo sapiens (Human), UniProt Q99759); design: dose or concentration left out as unconfirmed
ChaK1(h) = ChaK1(h) (Homo sapiens (Human), UniProt Q96QT4); design: dose or concentration left out as unconfirmed
ALK6(h) = ALK6(h) (Homo sapiens (Human), UniProt O00238); design: dose or concentration left out as unconfirmed
TLK2(h) = TLK2(h) (Homo sapiens (Human), UniProt Q86UE8)
Plk1(h) = Plk1(h) (Homo sapiens (Human), UniProt P53350); design: dose or concentration left out as unconfirmed
Plk1(h), sequence (P53350 whole entry): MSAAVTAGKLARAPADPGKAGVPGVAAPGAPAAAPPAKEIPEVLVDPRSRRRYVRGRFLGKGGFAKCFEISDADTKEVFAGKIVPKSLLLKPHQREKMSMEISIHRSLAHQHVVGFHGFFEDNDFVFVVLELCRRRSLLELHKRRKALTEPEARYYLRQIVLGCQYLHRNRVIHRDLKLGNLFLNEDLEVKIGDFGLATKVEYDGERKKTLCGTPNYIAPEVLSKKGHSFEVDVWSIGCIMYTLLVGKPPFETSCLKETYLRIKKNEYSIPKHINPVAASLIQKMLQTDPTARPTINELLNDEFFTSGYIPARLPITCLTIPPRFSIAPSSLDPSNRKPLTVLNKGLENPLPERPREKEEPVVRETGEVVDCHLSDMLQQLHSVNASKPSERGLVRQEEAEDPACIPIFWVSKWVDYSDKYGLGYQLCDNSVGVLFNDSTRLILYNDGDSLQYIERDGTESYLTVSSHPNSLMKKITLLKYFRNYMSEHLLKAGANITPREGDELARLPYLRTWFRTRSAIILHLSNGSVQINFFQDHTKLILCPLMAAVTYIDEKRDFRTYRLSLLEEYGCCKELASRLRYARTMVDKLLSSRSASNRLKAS

PDGFRα(h) = PDGFRα(h) (Homo sapiens (Human), UniProt P16234); design: dose or concentration left out as unconfirmed
CDK14/cyclinY(h) = CDK14/cyclinY(h) (Homo sapiens (Human), UniProt O94921); design: dose or concentration left out as unconfirmed
CDK14/cyclinY(h), sequence (O94921 whole entry): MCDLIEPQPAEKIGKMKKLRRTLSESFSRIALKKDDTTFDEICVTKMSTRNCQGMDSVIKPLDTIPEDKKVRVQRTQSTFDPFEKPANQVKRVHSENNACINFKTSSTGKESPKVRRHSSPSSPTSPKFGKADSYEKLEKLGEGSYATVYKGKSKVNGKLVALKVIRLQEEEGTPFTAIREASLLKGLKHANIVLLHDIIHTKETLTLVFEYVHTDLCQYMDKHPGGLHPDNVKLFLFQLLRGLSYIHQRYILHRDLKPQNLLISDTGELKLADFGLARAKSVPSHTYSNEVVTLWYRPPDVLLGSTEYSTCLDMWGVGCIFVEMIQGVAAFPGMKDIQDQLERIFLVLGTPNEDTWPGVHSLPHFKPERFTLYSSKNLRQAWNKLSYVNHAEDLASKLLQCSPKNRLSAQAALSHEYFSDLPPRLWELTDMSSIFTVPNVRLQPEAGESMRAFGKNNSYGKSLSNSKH
CDK14/cyclinY(h), sequence (Q8ND76 whole entry partner): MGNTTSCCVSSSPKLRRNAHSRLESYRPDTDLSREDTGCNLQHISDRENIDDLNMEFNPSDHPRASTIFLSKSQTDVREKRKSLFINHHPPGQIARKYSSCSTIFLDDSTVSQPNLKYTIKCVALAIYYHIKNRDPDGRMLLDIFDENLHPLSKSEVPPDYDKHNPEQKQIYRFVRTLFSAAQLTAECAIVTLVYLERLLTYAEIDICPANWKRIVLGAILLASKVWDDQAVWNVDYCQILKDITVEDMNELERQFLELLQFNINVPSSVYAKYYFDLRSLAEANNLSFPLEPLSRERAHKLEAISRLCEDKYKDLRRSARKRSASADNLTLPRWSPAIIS

PKCβI(h) = PKCβI(h) (Homo sapiens (Human), UniProt P05771); design: dose or concentration left out as unconfirmed
PKCβI(h), sequence (P05771 whole entry): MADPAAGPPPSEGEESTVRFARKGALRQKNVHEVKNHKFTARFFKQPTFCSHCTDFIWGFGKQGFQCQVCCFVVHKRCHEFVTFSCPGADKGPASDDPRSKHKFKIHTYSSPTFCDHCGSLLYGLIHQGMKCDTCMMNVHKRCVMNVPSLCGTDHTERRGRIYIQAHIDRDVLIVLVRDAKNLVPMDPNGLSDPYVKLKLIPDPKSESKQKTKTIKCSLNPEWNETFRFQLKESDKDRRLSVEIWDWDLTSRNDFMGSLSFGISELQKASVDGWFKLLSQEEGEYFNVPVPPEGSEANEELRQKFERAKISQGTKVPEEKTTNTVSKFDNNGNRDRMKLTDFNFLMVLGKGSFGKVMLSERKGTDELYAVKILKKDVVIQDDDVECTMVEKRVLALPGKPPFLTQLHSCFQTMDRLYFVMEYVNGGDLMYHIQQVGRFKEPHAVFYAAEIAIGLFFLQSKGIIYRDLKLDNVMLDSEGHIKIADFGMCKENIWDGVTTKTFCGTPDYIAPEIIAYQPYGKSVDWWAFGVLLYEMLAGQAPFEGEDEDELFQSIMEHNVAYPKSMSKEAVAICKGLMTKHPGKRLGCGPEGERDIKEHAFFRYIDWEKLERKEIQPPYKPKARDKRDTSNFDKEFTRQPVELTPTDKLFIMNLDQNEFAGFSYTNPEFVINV

WNK2(h) = WNK2(h) (Homo sapiens (Human), UniProt Q9Y3S1); design: dose or concentration left out as unconfirmed
Hck(h) = Hck(h) (Homo sapiens (Human), UniProt P08631); design: dose or concentration left out as unconfirmed
TSSK3(h) = TSSK3(h) (Homo sapiens (Human), UniProt Q96PN8); design: dose or concentration left out as unconfirmed
TSSK3(h), sequence (Q96PN8 whole entry): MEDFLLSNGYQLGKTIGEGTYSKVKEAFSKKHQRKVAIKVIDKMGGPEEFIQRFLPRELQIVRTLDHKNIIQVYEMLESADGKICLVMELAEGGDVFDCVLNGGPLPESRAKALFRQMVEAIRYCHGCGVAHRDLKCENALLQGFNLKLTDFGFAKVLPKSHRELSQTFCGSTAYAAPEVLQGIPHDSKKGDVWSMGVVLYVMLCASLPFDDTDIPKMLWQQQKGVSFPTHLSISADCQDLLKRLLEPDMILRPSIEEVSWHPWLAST

PAK3(h) = PAK3(h) (Homo sapiens (Human), UniProt O75914); design: dose or concentration left out as unconfirmed
ATR/ATRIP(h) = ATR/ATRIP(h) (Homo sapiens (Human), UniProt Q13535); design: dose or concentration left out as unconfirmed
LIMK2(h) = LIMK2(h) (Homo sapiens (Human), UniProt P53671); design: dose or concentration left out as unconfirmed
CK2α1(h) = CK2α1(h) (Homo sapiens (Human), UniProt P68400); design: dose or concentration left out as unconfirmed
CK2α1(h), sequence (P68400 whole entry): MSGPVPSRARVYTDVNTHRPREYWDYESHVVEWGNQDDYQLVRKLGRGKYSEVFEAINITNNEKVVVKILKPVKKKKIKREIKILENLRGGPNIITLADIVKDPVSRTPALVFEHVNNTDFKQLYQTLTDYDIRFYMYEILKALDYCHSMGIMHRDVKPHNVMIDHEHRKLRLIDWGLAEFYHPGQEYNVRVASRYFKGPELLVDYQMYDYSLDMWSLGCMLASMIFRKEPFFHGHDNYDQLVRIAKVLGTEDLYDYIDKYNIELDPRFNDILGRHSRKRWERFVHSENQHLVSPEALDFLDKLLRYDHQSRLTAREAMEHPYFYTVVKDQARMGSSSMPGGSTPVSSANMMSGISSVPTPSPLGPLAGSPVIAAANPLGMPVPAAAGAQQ

PAK4(h) = PAK4(h) (Homo sapiens (Human), UniProt O96013); design: dose or concentration left out as unconfirmed
PAK4(h), sequence (O96013 whole entry): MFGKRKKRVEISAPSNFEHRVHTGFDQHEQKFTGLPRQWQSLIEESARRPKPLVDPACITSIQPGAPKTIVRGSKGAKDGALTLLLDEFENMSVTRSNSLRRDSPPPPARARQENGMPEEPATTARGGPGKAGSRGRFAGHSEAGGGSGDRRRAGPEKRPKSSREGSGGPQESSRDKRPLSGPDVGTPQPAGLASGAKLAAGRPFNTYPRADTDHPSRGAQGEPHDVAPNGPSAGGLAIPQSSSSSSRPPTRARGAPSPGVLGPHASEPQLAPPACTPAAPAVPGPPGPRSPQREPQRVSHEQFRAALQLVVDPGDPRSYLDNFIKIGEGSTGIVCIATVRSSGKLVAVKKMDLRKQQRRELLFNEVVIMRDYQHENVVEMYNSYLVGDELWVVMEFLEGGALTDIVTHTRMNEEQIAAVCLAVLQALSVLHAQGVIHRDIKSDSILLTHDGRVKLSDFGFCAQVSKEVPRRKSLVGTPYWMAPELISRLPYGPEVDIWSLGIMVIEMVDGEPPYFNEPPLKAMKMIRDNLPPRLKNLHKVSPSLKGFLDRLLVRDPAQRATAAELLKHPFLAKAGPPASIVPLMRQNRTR

EphA2(h) = EphA2(h) (Homo sapiens (Human), UniProt P29317); design: dose or concentration left out as unconfirmed
EphA2(h), sequence (P29317 24-976): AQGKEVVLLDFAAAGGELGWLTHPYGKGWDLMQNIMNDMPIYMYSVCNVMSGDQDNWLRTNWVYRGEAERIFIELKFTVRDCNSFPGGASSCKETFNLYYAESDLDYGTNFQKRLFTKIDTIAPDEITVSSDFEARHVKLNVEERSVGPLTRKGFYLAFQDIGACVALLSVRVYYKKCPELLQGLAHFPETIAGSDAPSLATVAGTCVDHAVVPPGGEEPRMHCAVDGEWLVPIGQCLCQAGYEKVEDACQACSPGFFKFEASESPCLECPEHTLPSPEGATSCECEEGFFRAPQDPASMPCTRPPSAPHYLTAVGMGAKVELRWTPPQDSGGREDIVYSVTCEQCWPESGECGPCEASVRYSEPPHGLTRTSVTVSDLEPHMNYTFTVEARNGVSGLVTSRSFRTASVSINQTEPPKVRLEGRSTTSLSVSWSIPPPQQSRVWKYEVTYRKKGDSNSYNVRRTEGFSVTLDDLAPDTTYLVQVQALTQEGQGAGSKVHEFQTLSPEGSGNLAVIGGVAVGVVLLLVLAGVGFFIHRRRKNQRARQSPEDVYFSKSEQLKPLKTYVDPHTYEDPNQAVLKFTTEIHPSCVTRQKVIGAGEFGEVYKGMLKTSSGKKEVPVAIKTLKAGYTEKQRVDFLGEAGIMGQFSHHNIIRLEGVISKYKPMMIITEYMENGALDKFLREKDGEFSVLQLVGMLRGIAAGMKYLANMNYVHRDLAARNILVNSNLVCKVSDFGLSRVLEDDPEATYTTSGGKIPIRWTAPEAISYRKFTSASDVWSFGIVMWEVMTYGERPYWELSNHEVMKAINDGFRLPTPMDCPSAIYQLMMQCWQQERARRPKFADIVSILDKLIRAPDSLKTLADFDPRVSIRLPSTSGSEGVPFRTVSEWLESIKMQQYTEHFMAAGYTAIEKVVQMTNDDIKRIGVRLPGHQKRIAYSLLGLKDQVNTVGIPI

MEK2(h) = MEK2(h) (Homo sapiens (Human), UniProt P36507); design: dose or concentration left out as unconfirmed
MEK2(h), sequence (P36507 whole entry): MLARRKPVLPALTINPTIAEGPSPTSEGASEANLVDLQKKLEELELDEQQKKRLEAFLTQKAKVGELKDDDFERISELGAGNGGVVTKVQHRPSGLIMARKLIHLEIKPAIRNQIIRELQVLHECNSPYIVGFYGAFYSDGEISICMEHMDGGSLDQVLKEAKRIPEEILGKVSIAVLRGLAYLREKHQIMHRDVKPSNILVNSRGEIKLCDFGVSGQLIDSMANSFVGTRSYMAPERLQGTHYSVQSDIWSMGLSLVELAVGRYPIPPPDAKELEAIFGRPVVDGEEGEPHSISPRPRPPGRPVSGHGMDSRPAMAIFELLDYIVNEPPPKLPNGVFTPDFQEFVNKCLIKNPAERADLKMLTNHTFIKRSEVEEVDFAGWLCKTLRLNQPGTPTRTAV

FGFR4(h) = FGFR4(h) (Homo sapiens (Human), UniProt P22455); design: dose or concentration left out as unconfirmed
Txk(h) = Txk(h) (Homo sapiens (Human), UniProt P42681); design: dose or concentration left out as unconfirmed

NEK6(h), sequence (Q9HC98 whole entry): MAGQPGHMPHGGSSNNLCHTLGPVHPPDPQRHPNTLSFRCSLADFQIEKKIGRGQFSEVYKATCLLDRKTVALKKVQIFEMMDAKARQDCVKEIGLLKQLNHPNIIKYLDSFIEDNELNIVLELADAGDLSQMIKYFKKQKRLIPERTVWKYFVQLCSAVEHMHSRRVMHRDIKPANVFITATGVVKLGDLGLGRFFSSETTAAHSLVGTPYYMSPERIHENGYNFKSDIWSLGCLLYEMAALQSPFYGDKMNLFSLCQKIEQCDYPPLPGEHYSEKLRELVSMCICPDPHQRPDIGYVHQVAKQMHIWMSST

With `Cc1cc2c(-c3ccc(NC(=O)[C@H](N)CC(C)(C)C)cc3C)ccnc2[nH]1` [Compound F-90, (2R)-2-Amino-4,4-dimethyl-N-[3-methyl-4-(2-methyl-1H-pyrrolo[2,3-b]pyridin-4-yl)phenyl]pentanamide] the “% Activity” value (NEK6(h)) was 86%, the “% Activity” value (MEKK3(h)) was 107% and the “% Activity” value (ChaK1(h)) was 106%. For the same compound, the “% Activity” value (ALK6(h)) was 74%, the “% Activity” value (TLK2(h)) was 92% and the “% Activity” value (Plk1(h)) was 111%. The “% Activity” value (PDGFRα(h)) was 116%, the “% Activity” value (CDK14/cyclinY(h)) was 91% and the “% Activity” value (PKCβI(h)) was 90%. For the same compound, the “% Activity” value (WNK2(h)) was 94%, the “% Activity” value (Hck(h)) was 99% and the “% Activity” value (TSSK3(h)) was 96%. The “% Activity” value (PAK3(h)) was 89%, the “% Activity” value (ATR/ATRIP(h)) was 110% and the “% Activity” value (LIMK2(h)) was 72%. For the same compound, the “% Activity” value (CK2α1(h)) was 112%, the “% Activity” value (PAK4(h)) was 83% and the “% Activity” value (EphA2(h)) was 95%. For the same compound, the “% Activity” value (MEK2(h)) was 92%, the “% Activity” value (FGFR4(h)) was 114% and the “% Activity” value (Txk(h)) was 110%.
